Results taken from publication PMC9898036, “VIP152 is a selective CDK9 inhibitor with pre-clinical in vitro and in vivo efficacy in chronic lymphocytic leukemia” (Leukemia, 2022).
Where two headings read alike, the source gives them in different places.

Key:
Test in all cases: DiscoverX KINOMEscan kinase profiling (468 assays)
Assay type in all cases: binding
human kinome [1] = biological target: human kinome (Homo sapiens, UniProt Q15746); settings: read-out: Percent Control
How it was run: (§1)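 VIP152 was run in DMSO, alongside a DMSO control. Readout was qPCR of DNA-tagged kinase still bound to bead-immobilized biotinylated kinase ligands after compound competition.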

human kinome [2] = biological target: human kinome (Homo sapiens, UniProt P30530); settings: AXL; 100 nM; read-out: Percent Control
How it was run: as §1

human kinome [3] = biological target: human kinome (Homo sapiens, UniProt P57078); settings: kinase RIPK4 (Entrez RIPK4); compound concentration 1000 nM; read-out: Percent Control
How it was run: as §1

human kinome [4] = biological target: human kinome (Homo sapiens, UniProt P35916); settings: FLT4; 100 nM; read-out: Percent Control
How it was run: as §1

human kinome [5] = biological target: human kinome (Homo sapiens, UniProt P00533, G719S); settings: EGFR(G719S); 100 nM; read-out: Percent Control
How it was run: as §1

human kinome [6] = biological target: human kinome (Homo sapiens, UniProt Q09013); settings: DMPK; 100 nM; read-out: Percent Control
How it was run: as §1

human kinome [7] = biological target: human kinome (Homo sapiens, UniProt Q32MK0); settings: MLCK (Entrez MYLK3); 100 nM; read-out: Percent Control
How it was run: as §1

human kinome [8] = biological target: human kinome (Homo sapiens, UniProt P53671); settings: LIMK2; 100 nM; read-out: Percent Control
How it was run: as §1

human kinome [9] = biological target: human kinome (Homo sapiens, UniProt P00533, L861Q); settings: EGFR(L861Q); 100 nM; read-out: Percent Control
How it was run: as §1

human kinome [10] = biological target: human kinome (Homo sapiens, UniProt Q86Y07); settings: kinase VRK2 (Entrez VRK2); compound concentration 1000 nM; read-out: Percent Control
How it was run: as §1

human kinome [11] = biological target: human kinome (Homo sapiens, UniProt P42336, I800L); settings: read-out: Percent Control
How it was run: as §1

human kinome [12] = biological target: human kinome (Homo sapiens, UniProt Q96PY6); settings: read-out: Percent Control
Chain of human kinome (Homo sapiens, UniProt Q96PY6) (Q96PY6 whole entry): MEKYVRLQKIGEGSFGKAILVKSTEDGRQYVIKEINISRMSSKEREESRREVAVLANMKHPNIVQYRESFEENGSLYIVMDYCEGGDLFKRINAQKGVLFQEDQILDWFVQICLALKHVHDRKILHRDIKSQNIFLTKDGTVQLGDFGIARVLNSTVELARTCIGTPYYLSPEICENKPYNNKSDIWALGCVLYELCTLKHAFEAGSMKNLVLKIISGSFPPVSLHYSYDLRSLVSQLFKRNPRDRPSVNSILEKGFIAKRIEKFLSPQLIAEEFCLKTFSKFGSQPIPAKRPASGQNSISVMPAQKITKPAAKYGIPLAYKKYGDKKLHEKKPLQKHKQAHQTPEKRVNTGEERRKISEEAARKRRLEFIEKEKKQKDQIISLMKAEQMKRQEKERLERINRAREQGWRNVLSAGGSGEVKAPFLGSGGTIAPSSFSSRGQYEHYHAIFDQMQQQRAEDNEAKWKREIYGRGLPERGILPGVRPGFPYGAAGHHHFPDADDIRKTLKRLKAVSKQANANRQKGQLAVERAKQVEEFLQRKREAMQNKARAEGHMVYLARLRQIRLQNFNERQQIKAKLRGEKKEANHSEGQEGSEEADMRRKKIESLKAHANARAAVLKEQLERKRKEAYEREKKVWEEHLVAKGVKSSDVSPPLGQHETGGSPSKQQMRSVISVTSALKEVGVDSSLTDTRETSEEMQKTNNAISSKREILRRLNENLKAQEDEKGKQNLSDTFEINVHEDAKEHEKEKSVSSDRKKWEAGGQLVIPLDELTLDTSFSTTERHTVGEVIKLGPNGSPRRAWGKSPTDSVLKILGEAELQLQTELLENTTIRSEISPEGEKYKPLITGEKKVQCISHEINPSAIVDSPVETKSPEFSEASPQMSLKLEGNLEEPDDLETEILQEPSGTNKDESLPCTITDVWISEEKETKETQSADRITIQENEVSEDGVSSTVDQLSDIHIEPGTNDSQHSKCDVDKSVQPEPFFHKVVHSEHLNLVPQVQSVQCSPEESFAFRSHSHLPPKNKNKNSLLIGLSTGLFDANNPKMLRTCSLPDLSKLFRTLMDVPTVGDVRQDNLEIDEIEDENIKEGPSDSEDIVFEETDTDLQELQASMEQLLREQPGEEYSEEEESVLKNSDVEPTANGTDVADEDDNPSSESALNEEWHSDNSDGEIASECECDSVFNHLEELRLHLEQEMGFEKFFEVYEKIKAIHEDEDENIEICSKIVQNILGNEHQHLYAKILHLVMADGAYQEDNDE
How it was run: as §1

human kinome [13] = biological target: human kinome (Homo sapiens, UniProt O15530); settings: read-out: Percent Control
Chain of human kinome (Homo sapiens, UniProt O15530) (O15530 whole entry): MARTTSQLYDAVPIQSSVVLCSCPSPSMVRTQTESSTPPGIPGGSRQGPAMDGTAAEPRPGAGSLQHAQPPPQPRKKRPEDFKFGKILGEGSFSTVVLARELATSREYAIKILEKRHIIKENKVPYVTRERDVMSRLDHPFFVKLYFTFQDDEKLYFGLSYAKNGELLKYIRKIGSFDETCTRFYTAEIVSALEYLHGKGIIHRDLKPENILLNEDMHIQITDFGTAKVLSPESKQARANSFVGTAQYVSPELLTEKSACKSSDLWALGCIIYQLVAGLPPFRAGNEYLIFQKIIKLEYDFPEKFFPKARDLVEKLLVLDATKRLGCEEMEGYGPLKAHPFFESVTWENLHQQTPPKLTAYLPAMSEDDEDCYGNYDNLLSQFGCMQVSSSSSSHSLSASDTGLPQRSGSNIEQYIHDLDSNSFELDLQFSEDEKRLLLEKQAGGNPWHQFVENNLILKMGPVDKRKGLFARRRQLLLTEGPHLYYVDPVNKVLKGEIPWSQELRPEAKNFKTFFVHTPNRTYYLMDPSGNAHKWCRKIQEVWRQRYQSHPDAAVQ
How it was run: as §1

human kinome [14] = biological target: human kinome (Homo sapiens, UniProt P54756); settings: EPHA5; 100 nM; read-out: Percent Control
How it was run: as §1

human kinome [15] = biological target: human kinome (Homo sapiens, UniProt P15056); settings: BRAF; 100 nM; read-out: Percent Control
How it was run: as §1

human kinome [16] = biological target: human kinome (Homo sapiens, UniProt P51812); settings: compound concentration 1000 nM, read-out: Percent Control
Chain of human kinome (Homo sapiens, UniProt P51812) (P51812 whole entry): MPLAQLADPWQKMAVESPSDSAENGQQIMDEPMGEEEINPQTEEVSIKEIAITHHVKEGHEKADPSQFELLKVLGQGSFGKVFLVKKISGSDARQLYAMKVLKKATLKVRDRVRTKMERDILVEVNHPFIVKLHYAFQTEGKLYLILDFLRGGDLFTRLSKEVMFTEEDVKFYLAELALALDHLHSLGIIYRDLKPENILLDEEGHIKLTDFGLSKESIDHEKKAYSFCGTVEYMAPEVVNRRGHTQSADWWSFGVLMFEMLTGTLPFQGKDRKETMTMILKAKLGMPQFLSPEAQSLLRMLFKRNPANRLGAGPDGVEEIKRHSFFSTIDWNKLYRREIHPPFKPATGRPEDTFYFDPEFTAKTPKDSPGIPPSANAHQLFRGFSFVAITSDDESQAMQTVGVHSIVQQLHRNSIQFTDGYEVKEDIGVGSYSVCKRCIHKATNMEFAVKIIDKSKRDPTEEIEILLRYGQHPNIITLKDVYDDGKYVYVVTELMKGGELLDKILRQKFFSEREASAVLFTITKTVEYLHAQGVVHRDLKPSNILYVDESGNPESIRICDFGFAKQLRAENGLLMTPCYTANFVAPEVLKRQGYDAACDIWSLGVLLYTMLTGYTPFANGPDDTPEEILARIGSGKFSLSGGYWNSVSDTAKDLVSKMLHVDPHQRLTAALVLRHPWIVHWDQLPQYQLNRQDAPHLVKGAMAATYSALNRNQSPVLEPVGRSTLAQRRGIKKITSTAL
How it was run: as §1

human kinome [17] = biological target: human kinome (Homo sapiens, UniProt P00533, G719C); settings: EGFR(G719C); 100 nM; read-out: Percent Control
How it was run: as §1

human kinome [18] = biological target: human kinome (Homo sapiens, UniProt Q8TDR2); settings: kinase STK35 (Entrez STK35); compound concentration 1000 nM; read-out: Percent Control
How it was run: as §1

human kinome [19] = biological target: human kinome (Homo sapiens, UniProt O14733); settings: MKK7 (Entrez MAP2K7); 100 nM; read-out: Percent Control
How it was run: as §1

human kinome [20] = biological target: human kinome (Homo sapiens, UniProt Q96RR4); settings: CAMKK2; 100 nM; read-out: Percent Control
How it was run: as §1

human kinome [21] = biological target: human kinome (Homo sapiens, UniProt O75716); settings: kinase STK16 (Entrez STK16); compound concentration 1000 nM; read-out: Percent Control
How it was run: as §1

human kinome [22] = biological target: human kinome (Homo sapiens, UniProt P51451); settings: BLK; 100 nM; read-out: Percent Control
How it was run: as §1

human kinome [23] = biological target: human kinome (Homo sapiens, UniProt Q8NG66); settings: read-out: Percent Control
How it was run: as §1

human kinome [24] = biological target: human kinome (Homo sapiens, UniProt P49759); settings: CLK1; 100 nM; read-out: Percent Control
How it was run: as §1

human kinome [25] = biological target: human kinome (Homo sapiens, UniProt P22455); settings: FGFR4; 100 nM; read-out: Percent Control
How it was run: as §1

human kinome [26] = biological target: human kinome (Homo sapiens, UniProt P08069); settings: IGF1R; 100 nM; read-out: Percent Control
How it was run: as §1

human kinome [27] = biological target: human kinome (Homo sapiens, UniProt Q07002); settings: read-out: Percent Control
Chain of human kinome (Homo sapiens, UniProt Q07002) (Q07002 whole entry): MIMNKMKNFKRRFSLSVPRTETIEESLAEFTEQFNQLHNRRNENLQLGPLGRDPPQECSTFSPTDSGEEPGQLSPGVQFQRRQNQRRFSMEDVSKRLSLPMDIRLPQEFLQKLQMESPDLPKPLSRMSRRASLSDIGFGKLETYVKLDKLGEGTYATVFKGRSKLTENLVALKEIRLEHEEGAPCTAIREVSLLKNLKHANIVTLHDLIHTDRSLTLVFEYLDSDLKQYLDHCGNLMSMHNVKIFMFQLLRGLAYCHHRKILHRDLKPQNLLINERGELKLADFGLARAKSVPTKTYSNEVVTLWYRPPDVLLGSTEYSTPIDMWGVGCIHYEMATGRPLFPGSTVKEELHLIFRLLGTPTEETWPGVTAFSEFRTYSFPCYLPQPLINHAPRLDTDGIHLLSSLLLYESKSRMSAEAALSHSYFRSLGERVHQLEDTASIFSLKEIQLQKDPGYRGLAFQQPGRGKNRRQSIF
How it was run: as §1

human kinome [28] = biological target: human kinome (Homo sapiens, UniProt Q13163); settings: MEK5 (Entrez MAP2K5); 100 nM; read-out: Percent Control
How it was run: as §1

human kinome [29] = biological target: human kinome (Homo sapiens, UniProt Q8IY84); settings: read-out: Percent Control
How it was run: as §1

Chain of human kinome (Homo sapiens, UniProt Q15746) (Q15746 whole entry): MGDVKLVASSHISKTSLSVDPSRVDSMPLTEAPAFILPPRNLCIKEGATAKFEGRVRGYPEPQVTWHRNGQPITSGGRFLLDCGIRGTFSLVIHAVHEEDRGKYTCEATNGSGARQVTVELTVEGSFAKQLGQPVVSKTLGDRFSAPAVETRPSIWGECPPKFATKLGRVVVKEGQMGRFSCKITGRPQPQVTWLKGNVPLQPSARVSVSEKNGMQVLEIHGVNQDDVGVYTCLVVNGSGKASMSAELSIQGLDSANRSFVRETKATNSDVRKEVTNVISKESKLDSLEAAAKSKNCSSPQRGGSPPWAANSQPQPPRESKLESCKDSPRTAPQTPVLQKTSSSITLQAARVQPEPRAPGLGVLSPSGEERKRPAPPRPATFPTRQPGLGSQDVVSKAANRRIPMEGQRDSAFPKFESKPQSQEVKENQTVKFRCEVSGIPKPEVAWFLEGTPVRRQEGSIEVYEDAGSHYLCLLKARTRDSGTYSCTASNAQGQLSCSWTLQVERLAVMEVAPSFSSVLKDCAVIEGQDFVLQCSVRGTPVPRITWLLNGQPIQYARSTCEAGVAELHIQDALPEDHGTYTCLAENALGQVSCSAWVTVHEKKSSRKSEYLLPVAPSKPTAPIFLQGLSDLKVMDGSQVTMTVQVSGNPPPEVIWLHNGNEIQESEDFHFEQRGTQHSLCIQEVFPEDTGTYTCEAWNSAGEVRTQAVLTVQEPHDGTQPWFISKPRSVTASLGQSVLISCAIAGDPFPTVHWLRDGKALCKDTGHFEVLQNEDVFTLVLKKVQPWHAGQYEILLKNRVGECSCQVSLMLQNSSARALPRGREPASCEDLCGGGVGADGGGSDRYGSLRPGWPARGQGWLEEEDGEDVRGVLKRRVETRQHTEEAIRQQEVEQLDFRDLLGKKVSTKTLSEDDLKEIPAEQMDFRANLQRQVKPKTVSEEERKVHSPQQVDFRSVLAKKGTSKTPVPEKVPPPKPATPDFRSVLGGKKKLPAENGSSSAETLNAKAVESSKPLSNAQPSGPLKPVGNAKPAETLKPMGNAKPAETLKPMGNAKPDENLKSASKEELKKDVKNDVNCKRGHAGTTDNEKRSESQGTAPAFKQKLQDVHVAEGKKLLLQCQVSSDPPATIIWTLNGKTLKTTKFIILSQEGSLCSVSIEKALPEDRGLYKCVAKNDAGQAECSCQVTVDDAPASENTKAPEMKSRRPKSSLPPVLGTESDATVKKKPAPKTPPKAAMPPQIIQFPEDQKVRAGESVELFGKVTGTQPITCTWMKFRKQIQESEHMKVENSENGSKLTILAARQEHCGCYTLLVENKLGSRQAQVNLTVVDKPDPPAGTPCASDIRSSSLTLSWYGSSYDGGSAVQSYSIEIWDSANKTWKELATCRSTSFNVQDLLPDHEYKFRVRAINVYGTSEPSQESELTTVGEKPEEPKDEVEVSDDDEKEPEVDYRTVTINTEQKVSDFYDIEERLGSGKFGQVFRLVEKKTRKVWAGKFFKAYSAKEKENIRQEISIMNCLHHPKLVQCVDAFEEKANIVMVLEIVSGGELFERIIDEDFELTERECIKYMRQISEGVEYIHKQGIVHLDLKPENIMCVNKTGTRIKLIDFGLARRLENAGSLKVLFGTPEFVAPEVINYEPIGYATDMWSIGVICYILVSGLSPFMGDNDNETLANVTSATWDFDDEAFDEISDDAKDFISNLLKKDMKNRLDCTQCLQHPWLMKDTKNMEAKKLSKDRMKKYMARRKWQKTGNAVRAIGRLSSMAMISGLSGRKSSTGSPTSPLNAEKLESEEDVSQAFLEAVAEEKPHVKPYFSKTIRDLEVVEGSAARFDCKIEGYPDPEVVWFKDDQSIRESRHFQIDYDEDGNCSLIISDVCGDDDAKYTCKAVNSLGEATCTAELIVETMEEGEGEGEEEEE

With `COc1cc(F)ccc1-c1cc(Nc2cc(CS(C)(=N)=O)ccn2)ncc1F` (stereo not shown) [VIP152] the remaining binding at 0.1 µM (human kinome [1]; MYLK, 100 nM) was 95%, the remaining binding at 1 µM (human kinome [1]; kinase MYLK (Entrez MYLK), compound concentration 1000 nM) was 77% and the remaining binding at 0.1 µM (human kinome [2]) was 100%. The remaining binding at 1 µM (human kinome [3]) was 49%, the remaining binding at 0.1 µM (human kinome [4]) was 100% and the remaining binding at 0.1 µM (human kinome [5]) was 100%. For the same compound, the remaining binding at 0.1 µM (human kinome [6]) was 96%, the remaining binding at 0.1 µM (human kinome [7]) was 100% and the remaining binding at 0.1 µM (human kinome [8]) was 100%. It also gave a remaining binding at 0.1 µM (human kinome [9]) of 100%, a remaining binding at 1 µM (human kinome [10]) of 81% and a remaining binding at 0.1 µM (human kinome [11]; PIK3CA(I800L), 100 nM) of 100%. The remaining binding at 1 µM (human kinome [11]; kinase PIK3CA(I800L) (Entrez PIK3CA), compound concentration 1000 nM) was 98%, the remaining binding at 0.1 µM (human kinome [12]; NEK1, 100 nM) was 100% and the remaining binding at 1 µM (human kinome [12]; kinase NEK1 (Entrez NEK1), compound concentration 1000 nM) was 99%. It also gave a remaining binding at 0.1 µM (human kinome [13]; PDPK1, 100 nM) of 100%, a remaining binding at 1 µM (human kinome [13]; kinase PDPK1 (Entrez PDPK1), compound concentration 1000 nM) of 100% and a remaining binding at 0.1 µM (human kinome [14]) of 100%. For the same compound, the remaining binding at 0.1 µM (human kinome [15]) was 100%, the remaining binding at 1 µM (human kinome [16]; kinase RSK2(Kin.Dom.1-N-terminal) (Entrez RPS6KA3)) was 60% and the remaining binding at 1 µM (human kinome [16]; kinase RSK2(Kin.Dom.2-C-terminal) (Entrez RPS6KA3)) was 80%. For the same compound, the remaining binding at 0.1 µM (human kinome [17]) was 100%, the remaining binding at 1 µM (human kinome [18]) was 95% and the remaining binding at 0.1 µM (human kinome [19]) was 86%. For the same compound, the remaining binding at 0.1 µM (human kinome [20]) was 92%, the remaining binding at 1 µM (human kinome [21]) was 44% and the remaining binding at 0.1 µM (human kinome [22]) was 100%. The remaining binding at 0.1 µM (human kinome [23]; NEK11, 100 nM) was 100%, the remaining binding at 1 µM (human kinome [23]; kinase NEK11 (Entrez NEK11), compound concentration 1000 nM) was 74% and the remaining binding at 0.1 µM (human kinome [24]) was 92%. For the same compound, the remaining binding at 0.1 µM (human kinome [25]) was 100%, the remaining binding at 0.1 µM (human kinome [26]) was 79% and the remaining binding at 0.1 µM (human kinome [27]; PCTK3 (Entrez CDK18), 100 nM) was 100%. The remaining binding at 1 µM (human kinome [27]; kinase PCTK3 (Entrez CDK18), compound concentration 1000 nM) was 84%, the remaining binding at 0.1 µM (human kinome [28]) was 100% and the remaining binding at 0.1 µM (human kinome [29]; NIM1 (Entrez MGC42105), 100 nM) was 100%. It also gave a remaining binding at 1 µM (human kinome [29]; kinase NIM1 (Entrez MGC42105), compound concentration 1000 nM) of 86%.
